The source of these data is patent US9850283B2, “Macrocyclic inhibitors of the PD-1/PD-L1 and CD80(B7-1)/PD-L1 protein/protein interactions” (BRISTOL-MYERS SQUIBB COMPANY, priority 2013, dated 2017).

Where two headings read alike, the source gives them in different places. Starred links: 1 amine or outer side, 2 acyl side, 3 side chain; linkers in the order of their positions; H or OH if unused. Positions of bridges follow the written chain, without caps; N, C: chain ends. Non-standard residues stand in square brackets, D forms with d. Residues, ends and D or L forms follow the SMILES beside them. ξ: configuration not given here. X13 = COc1ccc2c(O[C@@H]3C[C@@H](C(=O)[*:2])N([*:1])C3)nccc2c1; Pro(trans-4-cHex) = O=C(O)[C@@H]1C[C@@H](C2CCCCC2)CN1; Phe(4-Cl) = N[C@@H](Cc1ccc(Cl)cc1)C(=O)O; Hyp = O=C(O)[C@@H]1C[C@@H](O)CN1; NMeNle = CCCC[C@H](NC)C(=O)O; NMeA = CN[C@@H](C)C(=O)O; Dab = NCC[C@H](N)C(=O)O; Dap = NC[C@H](N)C(=O)O; ξP = O=C(O)C1CCCN1

The target of assay [1] is T1, LK35.2-hPD-L1 cells / PE-labeled PD-1-Ig (Homo sapiens, UniProt Q9NZQ7).
T1 construct: expressed in transfected cells; host or cells: LK35.2 mouse B cell line
T1 sequence (Q9NZQ7 19-290): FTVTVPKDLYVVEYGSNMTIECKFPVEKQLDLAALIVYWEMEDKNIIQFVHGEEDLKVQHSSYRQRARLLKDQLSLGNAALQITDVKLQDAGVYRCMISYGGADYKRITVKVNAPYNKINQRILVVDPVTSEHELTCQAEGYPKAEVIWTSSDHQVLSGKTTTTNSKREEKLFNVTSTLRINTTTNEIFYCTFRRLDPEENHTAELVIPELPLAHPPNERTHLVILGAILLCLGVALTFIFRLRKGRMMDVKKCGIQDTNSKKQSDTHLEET
The assay can be described thus: LK35.2-hPD-L1 cell binding high-content screening assay. Format: cell-based. The conditions noted are these: cluster symbol, read-out: CBA IC50 cluster. A digest of the protocol:
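Mouse LK35.2 B cells stably overexpressing human PD-L1 were cultured overnight in RPMI with 10% FCS, then given compound and PE-labeled human PD-1-Ig (1 nM final) for 1 h at 37 °C. After three dPBS washes, bound fluorescence was quantified by high-content imaging.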

The next assay concerns the target T2, Human PD-L1/PD-1 (Homo sapiens, UniProt Q9NZQ7).
T2 construct: made in house; host or cells: HEK293T
The assay can be described thus: HTRF PD-1-Ig/PD-L1-His binding assay (human PD-L1). The conditions noted are these: cluster symbol; read-out: HTRF IC50 cluster. A digest of the protocol:
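The time-resolved fluorescence signal comes from Eu-cryptate anti-Ig (1 nM) and APC anti-His (20 nM) antibodies bound to a PD-1-Ig/PD-L1-His complex. Both partners lack transmembrane regions.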

Setting [2] is: cell binding assay, cell line not given.

T2 sequence (Q9NZQ7 with tags, fused parts or gaps): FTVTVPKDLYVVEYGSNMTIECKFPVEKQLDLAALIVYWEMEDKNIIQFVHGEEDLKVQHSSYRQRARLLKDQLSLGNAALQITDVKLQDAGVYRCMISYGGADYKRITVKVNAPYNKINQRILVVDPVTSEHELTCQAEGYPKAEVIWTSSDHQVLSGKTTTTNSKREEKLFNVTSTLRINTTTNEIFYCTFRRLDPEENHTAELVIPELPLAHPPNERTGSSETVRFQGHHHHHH

A word on the IC50: it is the point on the concentration scale where inhibition reaches its midpoint. For `CCCC[C@H]1C(=O)N(C)[C@@H](CCCC)C(=O)N[C@@H](CCCNC(=N)N)C(=O)N[C@H](C(=O)NCC(N)=O)CSCC(=O)N[C@@H](Cc2ccc(Cl)cc2)C(=O)N(C)[C@@H](C)C(=O)N[C@@H](CC(N)=O)C(=O)N2CCC[C@H]2C(=O)N[C@@H](CN)C(=O)N[C@@H](CC(C)C)C(=O)N2C[C@H](O)C[C@H]2C(=O)N[C@@H](Cc2c[nH]c3ccccc23)C(=O)N[C@@H](CO)C(=O)N[C@@H](Cc2c[nH]c3ccccc23)C(=O)N1C` [Example 7044] ({CH2CO}-[Phe(4-Cl)][NMeA]NP[Dap]L[Hyp]WSW[NMeNle][NMeNle]RCG-NH2; thioether N-14), the IC50 in assay [1] (setting [2]) fell in the range of 4.78 to 72.9 nM; on Human PD-L1/PD-1 it was 0.385 to 6.74 nM.
As to `CCCC[C@H]1C(=O)N(C)[C@@H](CCCC)C(=O)N[C@@H](CC(=O)O)C(=O)N[C@H](C(=O)NCC(N)=O)CSCC(=O)N[C@@H](Cc2ccc(O)cc2)C(=O)N(C)[C@@H](C)C(=O)N[C@@H](CC(=O)O)C(=O)N2CCC[C@H]2C(=O)N[C@@H](Cc2c[nH]cn2)C(=O)N[C@@H](CCCNC(=N)N)C(=O)N2CCCC2C(=O)N[C@@H](Cc2c[nH]c3ccccc23)C(=O)N[C@@H](CCCNC(=N)N)C(=O)N[C@@H](Cc2c[nH]c3ccccc23)C(=O)N1C` (stereo partly drawn) [Example 1201] ({CH2CO}-Y[NMeA]DPHR[ξP]WRW[NMeNle][NMeNle]DCG-NH2; thioether N-14), the half-maximal inhibitory concentration (IC50) in assay [1] (cell line of CBA not given (LK35.2-hPD-L1 or 293T-hPD-L1)) is 4.78 to 72.9 nM; at Human PD-L1/PD-1, 6.76 to 30.3 nM.
In the case of `CCCC[C@H]1C(=O)N(C)[C@@H](CCCC)C(=O)N[C@@H](CCCNC(=N)N)C(=O)N[C@H](C(=O)NCC(N)=O)CSCC(=O)N[C@@H](Cc2ccc(O)cc2)C(=O)N(C)[C@@H](C)C(=O)N[C@@H](CC(N)=O)C(=O)N2CCC[C@H]2C(=O)N[C@@H](CN)C(=O)N[C@@H](CC(C)C)C(=O)N2C[C@H](O)C[C@H]2C(=O)N[C@@H](Cc2c[nH]c3ccccc23)C(=O)N[C@@H](CC(=O)O)C(=O)N[C@@H](Cc2c[nH]c3ccccc23)C(=O)N1C` [Example 5057] ({CH2CO}-Y[NMeA]NP[Dap]L[Hyp]WDW[NMeNle][NMeNle]RCG-NH2; thioether N-14), the concentration for half-maximal inhibition (IC50) in assay [1] (setting [2]) was in the range of 4.78 to 72.9 nM; on Human PD-L1/PD-1, 6.76 to 30.3 nM.
Taken in the same sequence, the figures for `CCCC[C@H]1C(=O)N(C)[C@@H](COc2cccc(C)c2)C(=O)N[C@@H](CCCNC(=N)N)C(=O)N[C@H](C(=O)NCC(N)=O)CSCC(=O)N[C@@H](Cc2ccc(O)cc2)C(=O)N(C)[C@@H](C)C(=O)N[C@@H](CC(N)=O)C(=O)N2CCC[C@H]2C(=O)N[C@@H](CN)C(=O)N[C@@H](CC(C)C)C(=O)N2C[C@H](O)C[C@H]2C(=O)N[C@@H](Cc2c[nH]c3ccccc23)C(=O)N[C@@H](CO)C(=O)N[C@@H](Cc2csc3ccccc23)C(=O)N1C` [Example 5005] were 4.78 to 72.9 nM and 6.76 to 30.3 nM.
On to `CCCC[C@H]1C(=O)N(C)[C@@H](CCCC)C(=O)N[C@@H](CCC(=O)O)C(=O)N[C@H](C(=O)NCC(N)=O)CSCC(=O)N[C@@H](Cc2ccc(O)cc2)C(=O)N(C)[C@@H](C)C(=O)N[C@@H](CC(=O)O)C(=O)N2CCC[C@H]2C(=O)N[C@@H](Cc2c[nH]cn2)C(=O)N[C@@H](CCCCN)C(=O)N2C[C@H](C3CCCCC3)C[C@H]2C(=O)N[C@@H](Cc2c[nH]c3ccccc23)C(=O)N[C@@H](CCCCN)C(=O)N[C@@H](Cc2c[nH]c3ccccc23)C(=O)N1C` [Example 14008] ({CH2CO}-Y[NMeA]DPHK[Pro(trans-4-cHex)]WKW[NMeNle][NMeNle]ECG-NH2; thioether N-14), for which the figures for the half-maximal inhibitory concentration (IC50) (in assay [1] (setting [2]); on Human PD-L1/PD-1) were 0.158 to 4.71 nM and 0.385 to 6.74 nM, respectively.
As for `CCCC[C@H]1C(=O)N(C)[C@@H](CCCC)C(=O)N[C@@H](CC(C)C)C(=O)N[C@H](C(=O)NCC(N)=O)CSCC(=O)N[C@@H](Cc2ccc(O)cc2)C(=O)N(C)[C@@H](C)C(=O)N[C@@H](CC(N)=O)C(=O)N2CCC[C@H]2C(=O)N[C@@H](CN)C(=O)N[C@@H](CC(C)C)C(=O)N2C[C@H](Oc3nccc4cc(OC)ccc34)C[C@H]2C(=O)N[C@@H](Cc2c[nH]c3ccccc23)C(=O)N[C@@H](CCN)C(=O)N[C@@H](Cc2c[nH]c3ccccc23)C(=O)N1C` [Example 6048] ({CH2CO}-Y[NMeA]NP[Dap]L[X13]W[Dab]W[NMeNle][NMeNle]LCG-NH2; thioether N-14), the IC50 in assay [1] (setting [2]) lay in the range of 4.78 to 72.9 nM; on Human PD-L1/PD-1, 6.76 to 30.3 nM.
